Measured values: article PMC6393422, “Novel Chitohexaose Analog Protects Young and Aged mice from CLP Induced Polymicrobial Sepsis” (Scientific Reports, 2019)

Biological target: TLR4 (toll-like receptor 4) (Homo sapiens, UniProt O00206)
Experiment: TLR4 ELISA on lysates of human PBMCs treated with AVR-25 for […] h, dose response
Assay type: cell-based

Sequence of TLR4 (toll-like receptor 4) (O00206 24-839): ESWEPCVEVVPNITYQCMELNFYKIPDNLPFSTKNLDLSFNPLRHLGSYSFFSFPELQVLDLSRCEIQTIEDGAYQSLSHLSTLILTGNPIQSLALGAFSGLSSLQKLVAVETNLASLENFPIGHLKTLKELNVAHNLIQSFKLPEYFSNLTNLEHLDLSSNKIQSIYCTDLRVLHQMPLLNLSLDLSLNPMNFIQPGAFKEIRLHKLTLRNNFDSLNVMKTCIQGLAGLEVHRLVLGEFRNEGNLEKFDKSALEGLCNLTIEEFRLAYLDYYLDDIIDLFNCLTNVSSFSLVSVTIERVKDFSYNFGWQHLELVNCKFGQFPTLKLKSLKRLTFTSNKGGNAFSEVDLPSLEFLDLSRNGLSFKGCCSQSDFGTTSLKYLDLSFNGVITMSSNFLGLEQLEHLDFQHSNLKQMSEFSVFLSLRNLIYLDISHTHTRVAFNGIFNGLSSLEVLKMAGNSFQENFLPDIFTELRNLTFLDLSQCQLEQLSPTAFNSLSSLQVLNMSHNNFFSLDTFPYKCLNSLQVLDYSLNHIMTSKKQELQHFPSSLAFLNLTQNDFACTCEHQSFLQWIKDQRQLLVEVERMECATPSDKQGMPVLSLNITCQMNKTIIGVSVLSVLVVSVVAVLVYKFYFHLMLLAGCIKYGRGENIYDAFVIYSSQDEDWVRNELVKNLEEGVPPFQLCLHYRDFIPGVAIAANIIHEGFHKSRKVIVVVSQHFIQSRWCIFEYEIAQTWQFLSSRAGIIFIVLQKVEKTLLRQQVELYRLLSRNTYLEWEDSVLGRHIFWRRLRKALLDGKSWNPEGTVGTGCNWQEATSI

How did the IC50 turn out when CC(=O)N[C@H]1[C@H](OC2CCCCC2)O[C@H](CO)[C@@H](O[C@@H]2O[C@H](CO)[C@@H](O)[C@H](O)[C@H]2NC(C)=O)[C@@H]1O [AVR-25, N-((2R,3R,4R,5S,6R)-5-(((2S,3R,4R,5S,6R)-3-acetamido-4,5-dihydroxy-6-(hydroxymethyl)tetrahydro-2H-pyran-2-yl)oxy)-2-(cyclohexyloxy)-4-hydroxy-6-(hydroxymethyl)tetrahydro-2H-pyran-3-yl)acetamide] was run?
Its IC50 is 0.15 µM.
